“And” between values parts separate entries of the source, which are not always exact repeats. Identical values can stand only once.
Legend:
[1] = target: T1, Bovine Pancreatic Trypsin (Bos taurus, UniProt P00760); experiment: Dry-phase analytical element (reagent strip) for UTI measurement, decode from reflectance; format: biochemical; conditions: reflectance at 15 and 60 seconds; for decode, Negative Sample: Negative Sample = Water, substrate 1.25 mM in second dip; for decode, Positive Sample: Positive Sample = Water with 200 IU/mL urine trypsin inhibitor (ulinastatin)
T1 construct: purchased Calbiochem 6502; host or cells: bovine pancreas
T1 sequence (P00760 24-246): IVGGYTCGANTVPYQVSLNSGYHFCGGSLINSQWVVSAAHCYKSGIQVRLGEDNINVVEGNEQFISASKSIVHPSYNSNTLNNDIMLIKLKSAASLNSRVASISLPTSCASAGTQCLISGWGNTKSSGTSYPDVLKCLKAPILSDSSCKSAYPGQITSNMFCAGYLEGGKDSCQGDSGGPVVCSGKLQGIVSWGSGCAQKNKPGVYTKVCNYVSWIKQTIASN
Procedure: Reagent strips were made according to the following procedure: Filter paper (240 C grade from Ahlstrom Inc.) was saturated with the first dip solution and dried for 2 minutes at 80° C. and 4 minutes at 60° C. The resultant paper was then saturated with the second dip solution and dried for 6 minutes at 50° C. to form the completed reagent paper. Adhesive ([…] from 3M Inc.) was applied to the reagent paper and it was affixed to a polystyrene handle in the form of pads, which were 0.20 inch×0.20 inches square. A. Composition of the First Dip: • a. Water • b. Bicine Buffer (600 mM) • c. Ethylene glycol bis (β-aminoethyl ether) N,N,N',N'-tetra-acetic acid (EGTA) (5.1 mM) • d. Plasdone (PVP K30 from Sigma-Aldrich) (1.75% by weight) • e. MgSO4 (660 mM) • f. Bovine Pancreatic Trypsin (Calbiochem Cat. No. 6502) (272 units/mL) • g. Adjust to pH 8.00±0.02 with 1N NaOH. B. Composition of the Second Dip: • a. Acetone • b. […] KOK-10071 polymer (from Bayer Corporation) (0.1% by weight) Data were obtained by dipping the strips into the samples set out in Table 1 and placing them in a […] 50 spectrometer from Bayer Diagnostics to collect data at 15 and 60 seconds after dipping. Decode values were calculated using the equation: decode={[(B15+G15)-(B60+G60)]/(B15+G15)}*1000 Where: • B15 is the reflectance of the blue wavelength at 15 seconds, • B60 is the reflectance of the blue wavelength at 60 seconds, • G15 is the reflectance of the green wavelength at 15 seconds, and • […] is the reflectance of the green wavelength at 60 seconds.

[2] = target: T1, Bovine Pancreatic Trypsin; experiment: Dry-phase analytical element for trypsin detection, colour with MMBD diazonium salt; format: biochemical; conditions: within one minute
Procedure: (§1) Reagent strips were made according to the following procedure: Filter paper (240 C grade from Ahlstrom Inc.) was saturated with the first dip solution and dried at ambient temperature for 2 hours, then at 110° C. for 5 minutes. The resultant paper was saturated with the second dip solution and dried for about 1 minute at 60° C. to form the completed, white reagent paper. The paper was then cut into pads, which were 0.25 inch×0.25 inches square.
(§2) A. Composition of the First Dip:
• a. Water (25.0 mL) • b. Ethylene glycol bis (β-aminoethyl ether) N,N,N′,N′-tetra-acetic acid (EGTA) (0.06 g) • c. Plasdone (PVP K30 from Sigma-Aldrich) (0.438 g) • d. MgSO4 (1.08 g) B. Composition of the Second Dip: • a. Acetone (7.75 mL) • b. Example 3 trypsin substrate (4-(Nα-tosyl-NG-nitro-L-argininyloxy)-2-phenyl-5H-thiazole, 3.1 mg) • c. 2-Methoxy-4-morpholinobenzene diazonium chloride, zinc chloride double salt (MMBD) (diazonium coupling agent) (2.5 mg)
(§3) Identical pads were separately wetted with 25 μL portions of two different test solutions. One test solution was 50 mM pH=8 phosphate buffer (control solution) and the second was 50 mM pH=8 phosphate buffer containing 10,000 U/mL of bovine pancreatic trypsin (test solution).

trypsin = target: T2, trypsin (Bos taurus, UniProt P00760); experiment: Modified liquid assay with reagent pads, rate of fluorescent emission increase; format: biochemical, bovine; conditions: pH=7 buffer, excitation 335 nm
T2 sequence (P00760 24-246): T1 sequence (P00760 24-246)
Procedure: Trypsin concentrations may be instrumentally determined with the reagent pads in a modified liquid assay. Three reagent pads are extracted with 2.0 mL of 50 mM pH=7 buffer containing 0-20 u/mL of trypsin. Fluorescent emission at 385 nm is measured with a Perkin-Elmer Model LS-5 fluorescence spectrophotometer using excitation at 335 nm, and is reported in luminescence units (LU). The rate of increase of emission at 385 nm was determined graphically from the plot of LU vs. time output by the instrument.

[3] = target: T1, Bovine Pancreatic Trypsin; experiment: Dry-phase analytical element for trypsin detection, fluorescence under 365 nm UV; format: biochemical; conditions: within one minute
Procedure: as §1, §2
• a. Water (24.55 mL) • b. Ethylene glycol bis (β-aminoethyl ether) N,N,N′,N′-tetra-acetic acid (EGTA) (0.06 g) • c. Plasdone (PVP K30 from Sigma-Aldrich) (0.876 g) • d. MgSO4 (1.08 g) B. Composition of the Second Dip: • a. Acetone (9.3 mL) • b. Acetic acid (0.108 mL) • c. Example 5 trypsin substrate (7-(Nα-tosyl-NG-nitro-L-argininyloxy)-4-methylcoumarin, 5.0 mg)
as §3, with “solutions and viewed under long wavelength (365 nm) ultraviolet light illumination.” for “solutions.”, “pH=7” for “pH=8”

Cc1ccc(S(=O)(=O)N[C@@H](CCCNC(N)=N[N+](=O)[O-])C(=O)Oc2c[nH]c(-c3ccccc3)c2)cc1 [Example 1, 3-(Nα-tosyl-NG-nitro-L-argininyloxy)-5-phenylpyrrole]
decode, Negative Sample [1]: 474 | decode, Positive Sample [1]: 212

Cc1ccc(S(=O)(=O)N=C(N)NCCC[C@H](NS(=O)(=O)c2ccc(C)cc2)C(=O)Oc2c[nH]c(-c3ccccc3)c2)cc1 [Example 4, 3-(Nα-tosyl-NG-tosyl-L-argininyloxy)-5-phenylpyrrole]
decode, Negative Sample [1]: 61 | decode, Positive Sample [1]: 30

Cc1ccc(S(=O)(=O)NC(CCCN=C(N)N[N+](=O)[O-])C(=O)Oc2c[nH]c3ccccc23)cc1 [Example 2, 3-(Nα-tosyl-NG-nitro-L-argininyloxy)indole]
decode, Negative Sample [1]: 422 | decode, Positive Sample [1]: 168

Cc1ccc(S(=O)(=O)N[C@@H](CCCNC(N)=N[N+](=O)[O-])C(=O)Oc2csc(-c3ccccc3)n2)cc1 [Example 3, 4-(Nα-tosyl-NG-nitro-L-argininyloxy)-2-phenyl-5H-thiazole]
pad colour, test solution ([2]; 50 mM pH=8 phosphate buffer containing 10,000 U/mL bovine pancreatic trypsin): turned blue | pad colour, control solution ([2]; 50 mM pH=8 phosphate buffer without trypsin): remained white

Cc1ccc(S(=O)(=O)N[C@@H](CCCNC(=N)N[N+](=O)[O-])C(=O)Oc2ccc3c(C)cc(=O)oc3c2)cc1 [Example 5, 7-(Nα-tosyl-NG-nitro-L-argininyloxy)-4-methylcoumarin]
Rate of 385 nm emission increase (trypsin; Trypsin concentration 0 U/mL): 0.36 LU/mm | Rate of 385 nm emission increase (trypsin; Trypsin concentration 5 U/mL): 1.21 LU/mm and 2.35 LU/mm | Rate of 385 nm emission increase (trypsin; Trypsin concentration 10 U/mL): 2.38 LU/mm and 2.08 LU/mm | Rate of 385 nm emission increase (trypsin; Trypsin concentration 20 U/mL): 3.75 LU/mm | pad fluorescence, test solution ([3]; 50 mM pH=7 phosphate buffer containing 10,000 U/mL bovine pancreatic trypsin): fluorescing brightly | pad fluorescence, control solution ([3]; 50 mM pH=7 phosphate buffer without trypsin): remained dull and non-fluorescent

— patent publication US6955921B2, “Trypsin substrate and diagnostic device, and method of using same” (Bayer Corporation, priority 2001, dated 2005)
